Reference: patent US9926317B2, “Inhibitors of the renal outer medullary potassium channel” (Merck Sharp & Dohme Corp., priority 2014, dated 2018)

biological target: T1, ROMK (Kir1.1) channel (Homo sapiens, UniProt P48048); assay: Thallium Flux Assay; assay type: cell-based
T1 sequence (P48048 1-391): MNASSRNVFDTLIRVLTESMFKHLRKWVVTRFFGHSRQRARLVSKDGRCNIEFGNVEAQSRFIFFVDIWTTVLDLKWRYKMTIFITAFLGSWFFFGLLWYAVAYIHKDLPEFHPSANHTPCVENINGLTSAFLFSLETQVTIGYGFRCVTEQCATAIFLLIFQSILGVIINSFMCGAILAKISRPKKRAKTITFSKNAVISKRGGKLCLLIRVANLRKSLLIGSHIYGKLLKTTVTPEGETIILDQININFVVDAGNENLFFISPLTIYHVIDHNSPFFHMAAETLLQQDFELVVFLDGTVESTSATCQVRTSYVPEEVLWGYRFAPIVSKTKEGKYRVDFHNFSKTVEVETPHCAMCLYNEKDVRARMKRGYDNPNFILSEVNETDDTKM
Source text: The compounds of Formula I according to the invention are inhibitors of ROMK, and therefore could be used as diuretic and/or natriuretic agents. ROMK inhibitors may be used to help to increase urination and increase urine volume and also to prevent or reduce reabsorption of sodium in the kidneys leading to increased excretion of sodium and water. Therefore, the compounds could be used for treatment or prophylaxis or both of disorders that benefit from increased excretion of water and sodium from the body. Accordingly, the compounds of this invention could be used in a method for inhibiting ROMK comprising administering a compound of Formula I in a ROMK-inhibitory effective amount to a patient in need thereof. This also encompasses the use of the compounds for inhibiting ROMK in a patient comprising administering a compound of claim 1 in a therapeutically effective amount to a patient in need of diueresis, natriuresis or both. […] Moreover, this invention also relates to the use of the compounds of Formula I or salts thereof to validate in vitro assays, for example but not limited to the Thallium Flux Assay described herein.
The following Thallium Flux Assay was performed on each of the final product compounds in the Examples.
A Thallium Flux Assay was performed on the compounds of the Examples. This assay has been described previously; see, e.g., PCT Published Application WO 2013/062900.

SMILES	IC50
CC1=C(N2CCC3(CCN(C[C@H](O)c4ccc(-n5ncnn5)cc4)CC3)C2=O)COC1=O [Example 1, (R)-8-(2-(4-(2H-tetrazol-2-yl)phenyl)-2-hydroxyethyl)-2-(4-methyl-5-oxo-2,5-dihydrofuran-3-yl)-2,8-diazaspiro[4.5]decan-1-one]	7 nM
C[C@H]1CC2(CCN(C[C@@H](O)c3ccc(-n4ncnn4)cc3)CC2)C(=O)N1C1=CC(=O)OC1 [Example 5, (S)-8-((S)-2-(4-(2H-tetrazol-2-yl)phenyl)-2-hydroxyethyl)-3-methyl-2-(5-oxo-2,5-dihydrofuran-3-yl)-2,8-diazaspiro[4.5]decan-1-one]	3 nM
C[C@H]1CC2(CCN(C[C@H](O)c3ccc(-n4ncnn4)cc3)CC2)C(=O)N1C1=CC(=O)OC1 [Example 6, (S)-8-((R)-2-(4-(2H-tetrazol-2-yl)phenyl)-2-hydroxyethyl)-3-methyl-2-(5-oxo-2,5-dihydrofuran-3-yl)-2,8-diazaspiro[4.5]decan-1-one]	5 nM

Continued, values first:

IC50	SMILES
176 nM	CC1=C(N2CCC3(CCN(CC(O)c4ccc(-n5cnnc5)cc4)CC3)C2=O)COC1=O (racemic) [Example 2, 8-(2-(4-(4H-1,2,4-triazol-4-yl)phenyl)-2-hydroxyethyl)-2-(4-methyl-5-oxo-2,5-dihydrofuran-3-yl)-2,8-diazaspiro[4.5]decan-1-one]
248 nM	CC1=C(N2CCC3(CCN(CC(O)c4ccc(-n5cnnc5)nc4)CC3)C2=O)COC1=O (racemic) [Example 3, 8-(2-(6-(4H-1,2,4-triazol-4-yl)pyridin-3-yl)-2-hydroxyethyl)-2-(4-methyl-5-oxo-2,5-dihydrofuran-3-yl)-2,8-diazaspiro[4.5]decan-1-one]
7 nM	CC1=C(N2CCC3(CCN(C[C@@H](O)c4ccc(-n5ncnn5)cc4)CC3)C2=O)COC1=O [Example 4, (S)-8-(2-(4-(2H-tetrazol-2-yl)phenyl)-2-hydroxyethyl)-2-(4-methyl-5-oxo-2,5-dihydrofuran-3-yl)-2,8-diazaspiro[4.5]decan-1-one]
